Results reported in patent publication US20150182527A1, “COMPOSITIONS, DEVICES AND METHODS OF TREATING INFECTIONS” (COOK MEDICAL TECHNOLOGIES LLC, priority 2014, published 2015).

Experiments:
C. albicans #ATCC 10231 = experiment: Checkerboard microdilution MIC of azole and quaternary ammonium salt combinations; type: cell-based, Candida albicans; conditions: for MIC: Candida albicans
Excerpt: (§1) Interactions between the selected azoles and quaternary ammonium salts (quats) were characterized via changes in minimum inhibitory concentration (MIC) using a checkerboard method in 96-well plates. This method is adapted from the microdilution method outlined in CLSI, M27-A3 (2008), —Reference Method for Broth Dilution Antifungal Susceptibility Testing of Yeasts; Approved Standard—3rd Edition.
(§2) Briefly, X and Y axes were established on the plates to serve as MIC controls for the compounds acting individually. Two-compound interactions were evaluated at the X-Y axis intersection of the two single-drug concentration axes.
(§3) Frozen concentrated stock compound solutions were used as the starting point in making the dilution series. […] One-quarter of the final well volume of the 4× stock was added to the appropriate wells. For wells with a second compound, one-quarter of the final well volume of the second compound was also added. An equivalent volume of culture media was added to wells in which only a single compound was tested.
(§4) Final well volume was either 100 μl or 200 μl depending on assay run. After addition of the 4× stocks and/or media, one-half of the final well volume of 5×10^3 CFU/mL yeast inoculum was added to each test well. Yeast inoculums were made from a 0.5 McFarland-matched culture that had been growing for 4-5 hours at 37° C. in trypticase soy broth (TSB). Each assay plate also included inoculum-only growth control wells (half the final well volume of inoculum plus the other half culture media) and culture media-only control wells. The inoculated plates were cultured aerobically in a humidified 36° C. room air incubator for 18 hours or 24 hours (±1 hour), depending on assay run, at which time growth was scored. The scored plates were then returned to the incubator for an additional 24 hours (±1 hour) of culturing and scored a second time (at 42 or 48 hours total culturing time).
(§5) Unless stated otherwise, yeast growth was scored using the subjective five tier numerical score (NS) scale established in CLSI M27-A3: 4=no reduction in growth relative to control, 3=slight reduction in growth (-25% reduction), 2=prominent decrease in growth (˜50% reduction), 1=slightly hazy growth (-75% reduction), 0 =no visible growth. Growth is scored relative to the on-plate inoculum control.
(§6) The checkerboard plate data was utilized to derive a fractional inhibitory concentration index (FICI) value that scores the interaction between compounds on a three category interaction scale: FICI <0.5 indicates synergy, FICI 0.5-4 indicates no interaction, and FICI >4 indicates antagonism. The FICI equation is: […]

C. glabrata # ATCC 2950 = experiment: as above; type: cell-based, Candida glabrata; conditions: for MIC: Nakaseomyces glabratus, ATCC2950, fluconazole alone or its concentration in the combination
Excerpt: as §1, §2, §3, §4, §5, §6

[1] = TSB media, 48 hours post inoculation, benzalkonium-Cl alone or its concentration in the combination

| Compound | MIC (C. albicans #ATCC 10231; ATCC10231, 48 h, RPMI media, 48 hours post inoculation, fluconazole alone or its concentration in the combination) [µg/mL] | MIC (C. albicans #ATCC 10231; ATCC10231, TSB media, 42 hours post inoculation, NS≦2 is efficacious, fluconazole alone or its concentration in the combination) [µg/mL] | MIC (C. albicans #ATCC 10231; ATCC10231, TSB media, 48 hours post inoculation, fluconazole alone or its concentration in the combination with benzalkonium-Cl) [µg/mL] | MIC (C. glabrata # ATCC 2950; RPMI media, 48 hours post inoculation) [µg/mL] | MIC (C. glabrata # ATCC 2950; TSB media, 42 hours post inoculation, NS≦2 is efficacious) [µg/mL] | Fluconazole MIC (C. glabrata # ATCC 2950; TSB media, 48 hours post inoculation, fluconazole alone or its concentration in the combination with benzalkonium-Cl) [µg/mL] | Benzalkonium-Cl MIC (C. albicans #ATCC 10231; [1]) [µg/mL] | Benzalkonium-Cl MIC (C. glabrata # ATCC 2950; [1]) [µg/mL] |
| --- | --- | --- | --- | --- | --- | --- | --- | --- |
| OC(Cn1cncn1)(Cn1cncn1)c1ccc(F)cc1F [Fluconazole, fluconazole] | 128 | 256 | 64 | 16 | 16 | 16 | – | – |
| benzalkonium chloride [Benzalkonium-Cl] | – | – | – | – | – | – | 3.8 | 1.9 |
